Test results published in ChEMBL document CHEMBL1137606, “Synthesis of novel phytosphingosine derivatives and their preliminary biological evaluation for enhancing radiation therapy” (2007).
Activity calls are given as the source filed them. No cut-off for these calls is given here.

How the values were obtained:
Jurkat [1] = test: Cytotoxicity against gamma irradiated human Jurkat cells at 10 uM after 30 mins relative to control; type: functional
Jurkat [2] = test: Cytotoxicity against human Jurkat cells at 10 uM after 30 mins; type: functional, cell-based

`CCCCCCCCCCCCCC[C@@H](O)[C@@H](O)[C@H](CO)NC(=O)CCCC(=O)OCC` showed an Activity (Jurkat [1]) of 19%.

For `CCCCCCCCCCCCCC[C@@H](O)[C@@H](O)[C@H](CO)NC(=O)CCCCCCCCC(=O)OC`, the Activity (Jurkat [2]) was “Active” and the Activity (Jurkat [1]) was “inactive”.

For `CCCCCCCCCCCCCC[C@@H](O)[C@@H](O)[C@@H](N)CO`, the Activity (Jurkat [2]) was “Active” and the Activity (Jurkat [1]) was “inactive”.

Work on `CCCCCCCCCCCCCC[C@@H](O)[C@@H](O)[C@H](CO)NC(=O)CCC(=O)OCC` yielded an Activity (Jurkat [1]) of 12%.

`CCCCCCCCCCCCCC[C@@H](O)[C@@H](O)[C@H](CO)NC(=O)COCc1ccccc1` showed an Activity (Jurkat [1]) of 11%.
